Experimental data reported in patent publication US9783521B2, “PDE10 inhibitors and related compositions and methods” (Omeros Corporation, priority 2008, dated 2017).

target: T1, recombinant human PDE 10A1 (Homo sapiens, UniProt Q9Y233); assay: PDE10 biochemical assay (two-step Thompson and Appleman method or SPA); conditions: PDE10 inhibition; read-out: IC50
T1 construct: made in house; host or cells: Sf9 insect cells, baculoviral system
Method: After the appropriate incubation time, the reaction is terminated by heating. The mixture is then subjected to treatment with snake venom phosphatase. […] IC50 values can be calculated by performing the experiment at several concentrations using standard graphical means. A detailed description of the actual technique used for IC50 assays as set forth in following Examples.
The phosphodiesterase (PDE) assay was performed using recombinant human PDE 1A3, 2A3, 3 catalytic region, 4 catalytic region, 5 catalytic region, 7A, 8A, 9A2, 10A1 and 11A1 enzymes expressed in a baculoviral system using Sf9 cells. PDE activity was measured using a modification of the two-step method of Thompson and Appleman described above which was adapted for 96 well plate format. […] Reactions were initiated with enzyme and incubated with (^3H)-substrate and substance for 20 minutes at 30° C. The reaction was terminated by denaturing the enzyme (heating the reaction to 70° C. for 2 minutes). The reaction was then cooled at 4° C. for 10 minutes before the addition of snake venom (Crotalus atrox, 0.2 mg/ml) for 10 minutes at 30° C., thus allowing non-specific hydrolysis of the tritiated substrate. Separation of the remaining unhydrolysed cyclic nucleotide was achieved by a batch binding of the mixture to activated Dowex (200 μl) anion exchange resin. The anion exchange resin bound the charged nucleotides, leaving only hydrolysed (^3H) substrate in the soluble fraction. The soluble fraction (50 μl) was then added to microscint-20 (200 μl) and counted on a Top Count Plate reader. Radioactivity units were plotted against inhibitor concentration and IC50 values obtained using Graph Pad Prism software.
Alternatively, phosphodiesterase activity was measured by scintillation proximity assay (SPA) with [^3H]-cGMP as substrate. Purified PDE10 was diluted and stored in 25 mM Tris-Cl (pH 8.0)/100 mM NaCl/0.05% Tween 20/50% glycerol/3 mM DTT. Assays contained (final concentrations): 50 mM Tris-Cl (pH 7.5)/8.3 mM MgCl2/1.7 mM EGTA/0.5 mg/ml BSA/5% DMSO and 2 ng PDE10 in a final volume of 0.1 mL. Inhibition was evaluated at 8 concentrations in duplicate. Reactions were initiated by addition of enzyme and were terminated after 20 minutes at 30° C. by the addition of 50 μl of SPA beads containing Zn^++. The mixture was shaken, allowed to settle for 3 hours, and counted in a Wallac plate counter. Results (net cpm) were fitted to a four parameter logistic model using Excel Solver®.

T1 sequence (Q9Y233 1-779 isoform Q9Y233-1): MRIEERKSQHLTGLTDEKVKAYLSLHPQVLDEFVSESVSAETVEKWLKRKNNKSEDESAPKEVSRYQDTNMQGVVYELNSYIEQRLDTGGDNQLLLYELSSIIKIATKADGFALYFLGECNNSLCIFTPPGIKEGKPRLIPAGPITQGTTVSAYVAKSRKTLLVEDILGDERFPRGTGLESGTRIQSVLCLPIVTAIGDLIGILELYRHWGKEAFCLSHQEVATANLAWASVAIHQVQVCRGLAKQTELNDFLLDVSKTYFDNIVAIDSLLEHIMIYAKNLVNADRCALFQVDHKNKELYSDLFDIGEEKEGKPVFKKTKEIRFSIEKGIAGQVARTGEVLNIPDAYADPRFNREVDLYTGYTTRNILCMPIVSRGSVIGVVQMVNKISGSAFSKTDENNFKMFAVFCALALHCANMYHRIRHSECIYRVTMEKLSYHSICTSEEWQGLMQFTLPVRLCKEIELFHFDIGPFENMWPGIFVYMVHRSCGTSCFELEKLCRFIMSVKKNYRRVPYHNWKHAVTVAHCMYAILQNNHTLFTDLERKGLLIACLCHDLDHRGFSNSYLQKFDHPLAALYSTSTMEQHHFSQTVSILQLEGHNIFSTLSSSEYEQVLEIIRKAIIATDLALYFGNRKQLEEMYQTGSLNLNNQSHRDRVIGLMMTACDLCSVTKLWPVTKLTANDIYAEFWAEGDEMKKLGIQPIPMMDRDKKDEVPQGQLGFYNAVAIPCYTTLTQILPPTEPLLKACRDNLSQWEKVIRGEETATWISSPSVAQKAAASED

Question: How did the IC50 turn out when COc1ccc(/C=N/NC(=O)Cc2ccc(OC)c(OC)c2)cc1OC [Compound 12-90] was run?
Answer: ≤ 1000 nM

Question: Which IC50 does the source give for COc1cc(/C=N/NC(=O)C(OCCN(C)C)c2ccc3c(c2)OCO3)cc(OC)c1Br (centres unmarked) [Compound 12-109] here?
Answer: ≤ 1000 nM

Question: With COc1cc(/C=N/NC(=O)C(OC)c2ccc3c(c2)OCO3)cc(Br)c1OC (centres unmarked) [Compound 12-116] as the compound, how does the IC50 read?
Answer: ≤ 1000 nM

Question: Which IC50 does the source give for CCOC(C(=O)N/N=C/c1cc(OC)c(Cl)c(OC)c1)c1cccc2ncccc12 (centres unmarked) [Compound 12-119] here?
Answer: ≤ 1000 nM

Question: With CCOC(C(=O)N/N=C/c1cc(OC)cc(OC)c1)c1cccc2ncccc12 (centres unmarked) [Compound 12-120] as the compound, how does the IC50 read?
Answer: ≤ 1000 nM

Question: How did the IC50 turn out when COc1cc(/C=N/NC(=O)C(OC)c2cccc(N(C)C)c2)cc(Br)c1OC (centres unmarked) [Compound 12-122] was run?
Answer: ≤ 1000 nM

Question: With COc1cc(/C=N/NC(=O)C(OCCN(C)C)c2ccc3ccccc3c2)cc(OC)c1Br (centres unmarked) [Compound 12-123] as the compound, how does the IC50 read?
Answer: ≤ 1000 nM

Question: Which IC50 does the source give for COc1cc(/C=N/NC(=O)C(OC)c2cccc(N(C)C)c2)cc(OC)c1O (centres unmarked) [Compound 12-124] here?
Answer: ≤ 1000 nM

Question: For COc1cc(/C=N/NC(=O)C(OC)c2ccc(N3CCCC3)cc2)cc(OC)c1Cl (centres unmarked) [Compound 12-126], which IC50 is on record?
Answer: ≤ 1000 nM

Question: How did the IC50 turn out when CCOC(C(=O)N/N=C/c1cc(OC)c(C)c(OC)c1)c1cccc2c1OCCO2 (centres unmarked) [Compound 12-128] was run?
Answer: ≤ 1000 nM

Question: CCOC(C(=O)N/N=C/c1cc(Br)c(OC)c(OC)c1)c1cccc2c1OCCO2 (centres unmarked) [Compound 12-129] was tested. Which IC50 did it give?
Answer: ≤ 1000 nM

Question: How did the IC50 turn out when CCOC(C(=O)N/N=C/c1cc(OC)c(OC)c(OC)c1)c1cccc2c1OCCO2 (centres unmarked) [Compound 12-130] was run?
Answer: ≤ 1000 nM

Question: For CCOC(C(=O)N/N=C/c1cc(OC)c(Br)c(OC)c1)c1cccc2c1OCCO2 (centres unmarked) [Compound 12-131], which IC50 is on record?
Answer: ≤ 1000 nM

Question: Which IC50 does the source give for CCOC(C(=O)N/N=C/c1cc(Br)c(OC)c(OC)c1)c1ccc2c(c1)OCCO2 (centres unmarked) [Compound 12-135] here?
Answer: ≤ 1000 nM

Question: COc1cc(/C=N/NC(=O)Cc2ccc(N3CCOCC3)cc2)cc(OC)c1Br [Compound 12-139] was tested. Which IC50 did it give?
Answer: ≤ 1000 nM

Question: How did the IC50 turn out when COc1cc(/C(C)=N/NC(=O)C(OC)c2ccc(-n3cccn3)cc2)cc(OC)c1OC (centres unmarked) [Compound 12-144] was run?
Answer: ≤ 1000 nM

Question: Which IC50 does the source give for COc1ccc(/C=N/NC(=O)C(OC)c2ccc(-n3cccn3)cc2)cc1OC (centres unmarked) [Compound 12-155] here?
Answer: ≤ 1000 nM
